Experimental data reported in patent EP0586525B1, “CARBOXAMIDO-(1,2N)-CARBOCYCLIC-2-AMINOTETRALIN DERIVATIVES” (priority 1991, dated 1992).

Tests used:
Mouse hypothermia = type: in vivo; conditions: dose depressing temperature by 2°C or more in two of four mice
Method: Hypothermia: Starting with a dose of 30 mg/kg, four mice are injected subcutaneously with test compound. Twenty minutes later, the number of animals whose body temperature has decreased by 2°C. or more are counted. If all four animals reach criteria, the drug is considered "active", and subsequent readings are taken at 60 and 120 minutes after drug. The time for last statistically significant drug affect on mean body temperature is indicated in minutes. […] Active compounds are retested using oral administration. Potency is given as mg/kg ED50 (dose required to depress temperature in two of four mice) as measured by Spearman-Karber statistics.

[1] = Blood pressure at the SND ED50 dose (BP SND/MAX); type: in vivo; conditions: at the dose which inhibited sympathetic activity by 50%, i.v., chloralose anesthetized cats
Method: BP SND/MAX: The blood pressure of the chloralose anesthetized cats in percent control at the dose causing 50% depression in SND and the maximum reduction in blood pressure as percent of the control blood pressure in the same animals observed in the dose range tested (0.001-1.0 mg/kg i.v.).

[2] = tested on: dorsal raphe 5-HT cell firing; assay: 5-HT cell firing in chloral hydrate anesthetized rats; type: in vivo; conditions: Rattus norvegicus, iv, read-out: Depression of 5-HT cell firing, ED50
From the text: 5-HT Cell Firing: The i.v. mg/kg dose causing a 50% depression in the firing of dorsal raphe 5-HT cell firing in chloral hydrate anesthetized rats.

[3] = Pharmacokinetics following constant infusion (steady state clearance); conditions: plasma, iv; after 12 hour infusion (300 µg/hour), anesthetized rat; read-out: In vivo steady state clearance
Method: Pharmacokinetics Following Constant Infusion: Clearance rate (ml/min/kg) was determined following a 12 hour infusion (300 µg/hour) of compound in the anesthetized rat. Disappearance of parent compound from plasma was measured at multiple time points following cessation of the infusion using HPLC methodology.

[4] = Oral plasma bioavailability; type: in vivo; conditions: rat, 6 mg/kg, conscious rats
Method: Oral Bioavailability: Comparison of the disappearance of compound from plasma following oral (6 mg/kg) and intravenous (2 mg/kg) administration in conscious rats. Parent compound in plasma was measured at multiple time points following administration using HPLC methodology. Bioavailability is expressed as a percentage of the drug in plasma following oral administration compared to that following intravenous administration.

rat hepatocytes = assay: In vitro rat hepatocyte intrinsic clearance; type: in vitro ADME; conditions: for In vitro hepatocyte assay clearance: 2, 5 and 15 µg/ml, 60 minute incubation at 37°C, rat hepatocytes 5.0 million cells/ml; for relative metabolic stability (rel. stab.): relative to cis-(±)2,3,3a,4,5,9b-hexahydro-9-carboxamido-3-(n-propyl)-1H-benz[e]indole, rat hepatocytes
Method: Aliquots of each incubate were withdrawn at preset times during the incubation and analyzed for parent compound using HPLC methodology. Intrinsic clearance is expressed as ml/min/5 million cells and metabolic stability relative to cis-(+)2,3,3a,4,5,9b-hexahydro-9-carboxamide-3-(n-propyl)-1H-benz[e]indole is determined.

[5] = molecular target: T1, 5-hydroxytryptamine (5-HT1A) receptor (Bos taurus, UniProt F6Q2H9); assay: Inhibition of 8-OH-DPAT binding in a bovine brain homogenate; conditions: read-out: Binding at the 5-HT1A receptor site, IC50
T1 construct: from tissue; host or cells: bovine brain homogenate
T1 sequence (F6Q2H9 1-422): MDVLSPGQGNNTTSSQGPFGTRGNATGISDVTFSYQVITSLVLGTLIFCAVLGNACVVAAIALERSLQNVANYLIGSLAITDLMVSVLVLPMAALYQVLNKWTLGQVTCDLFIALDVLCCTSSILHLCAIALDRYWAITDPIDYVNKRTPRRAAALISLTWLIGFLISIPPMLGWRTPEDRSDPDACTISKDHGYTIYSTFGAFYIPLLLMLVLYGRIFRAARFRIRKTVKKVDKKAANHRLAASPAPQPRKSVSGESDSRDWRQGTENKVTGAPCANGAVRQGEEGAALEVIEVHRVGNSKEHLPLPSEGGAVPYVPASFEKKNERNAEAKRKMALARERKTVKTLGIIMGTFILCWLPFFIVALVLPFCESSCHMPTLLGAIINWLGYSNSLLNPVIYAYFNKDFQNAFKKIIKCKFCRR
From the text: Binding: Inhibition of 8-OH-DPAT binding in a bovine brain homogenate. Potency is given as nM dose required to inhibit 50% of DPAT binding (IC50). This test measures ability to bind to 5-hydroxytryptamine (5-HT1A) receptor.

[6] = tested on: spontaneous sympathetic activity; assay: Sympathetic nerve discharge (SND) in chloralose anesthetized cats; type: in vivo; conditions: Felis catus, iv, dose range 0.001-1.0 mg/kg, read-out: Sympathetic nerve discharge, ED50 dose which inhibits spontaneous sympathetic activity
Method: Sympathetic Nerve Discharge (SND): The i.v. mg/kg dose causing a 50% depression in SND in chloralose anesthetized cats and the maximum inhibition of sympathetic activity observed in the dose range tested (0.001-1.0 mg/kg i.v.).

[7] = rat, in vivo; cited from earlier work
[8] = sc, subcutaneous (s.c.) administration

Structure (SMILES)	ED50 (Mouse hypothermia; oral (p.o.) administration) [mg/kg]	ED50 (Mouse hypothermia; [8]) [mg/kg]	Percent of control arterial blood pressure [1] [%]	ED50 [2] [mg/kg]	clearance [3] [mL/min/kg]	bioavailability ([4]; Study 1, oral 6 mg/kg vs i.v. 2 mg/kg) [%]	bioavailability ([4]; Study 2, samples taken for 24 hours after administration, oral 6 mg/kg vs i.v. 2 mg/kg) [%]	In vitro hepatocyte assay clearance (rat hepatocytes)	relative metabolic stability (rel. stab.) (rat hepatocytes)	IC50 [5] [nM]	ED50 [6] [mg/kg]	bioavailability ([4]; study not given, oral 6 mg/kg vs i.v. 2 mg/kg) [%]	plasma oral bioavailability [7] [%]
CCCN1CC[C@H]2c3c(cccc3C(N)=O)CC[C@H]21 (racemic) [Compound 1, cis-(±)2,3,3a,4,5,9b-hexahydro-9-carboxamido-3-(n-propyl)-1H-benz[e]indole]	7.3	0.97	82	0.002	58	59	70	.013 ml/min/5 million cells	1.0	5.2	0.037	–	–
CCCN1CCCC2c3c(cccc3C(N)=O)CCC21 (single isomer, unassigned) [Compound 5, trans-(-)1,2,3,4,4a,5,6,10b-octahydro-10-carboxamido-4-(n-propyl)-benzo[f]quinoline]	–	1.73	85	> 0.1	43	–	–	.012 ml/min/5 million cells	3.59	1.5	0.15	86	–
CCCN1CCC[C@H]2c3c(cccc3C(N)=O)CC[C@@H]21 (single isomer, unassigned) [Compound 6, trans-(+)1,2,3,4,4a,5,6,10b-octahydro-10-carboxamido-4-(n-propyl)-benzo[f]quinoline]	–	–	–	–	–	–	–	–	1.05	–	–	–	–
CCCN1CC[C@H]2c3c(cccc3C(N)=O)CC[C@H]21 (single isomer, unassigned) [Compound 2, cis-(-)2,3,3a,4,5,9b-hexahydro-9-carboxamido-3-(n-propyl)-1H-benz[e]indole]	–	–	84	0.006	–	–	–	–	–	10.2	0.019	–	–
CCCN1CCC2c3c(cccc3C(N)=O)CCC21 (single isomer, unassigned) [Compound 3, cis-(+)2,3,3a,4,5,9b-hexahydro-9-carboxamido-3-(n-propyl)-1H-benz[e]indole]	–	–	–	> 0.3	–	–	–	–	–	533	> 1	–	–
CCCN(CCC)C1CCc2cccc(O)c2C1 (centres unmarked) [8-OH DPAT]	–	–	–	–	–	–	–	–	–	–	–	–	< 5
CCCN1CCCC2c3c(cccc3C(N)=O)CCC21 (racemic) [Compound 4, trans-(±)1,2,3,4,4a,5,6,10b-octahydro-10-carboxamido-4-(n-propyl)-benzo[f]quinoline]	4.1	0.23	–	–	–	–	–	–	–	3.7	–	–	–
